# Assays:
# [1] = test system: bFGF-stimulated formation of new blood vessel in the Matrigel plug; assay: Matrigel plug perfusion in vivo assay (anti-angiogenic efficacy); conditions: mice, Matrigel and bFGF
# From the text: The assay uses Matrigel, a gelatinous protein mixture secreted by mouse tumor cells and marketed by BD Biosciences, to duplicate tissue environments. Matrigel is liquid at room temperature, but when injected into the animal, forms a solid plug. If a growth vessel stimulant such as basic fibroblast growth factor (bFGF) is mixed with the Matrigel, the bFGF stimulates the formation of new blood vessel in the plug, which can be monitored in the animal via fluorescence techniques. In the current study, Matrigel is injected either alone or with bFGF subcutaneously into mice.
# white blood cells = conditions: mice, about 2 mg/kg dose, 28 days
# Procedure: A group of 6 mice are administered various dosages of the cobalamin-paclitaxel bioconjugate prepared in accordance with Example 1 over a 28 day period. The effects to the viable circulating endothelial cell precursors and white blood cells are measured after 28 days.
compound,measurement,setting,value
"CC(=O)O[C@H]1C(=O)[C@@]2(C)C([C@H](OC(=O)c3ccccc3)[C@]3(O)C[C@H](OC(=O)[C@H](OC(=O)C[NH+](C)CC[CH2][Co+][N]4/C5=C(/C)C6=N/C(=C\C7=NC(=C(/C)C8=NC(C(C)C4C(CC(N)=O)C5(C)CCC(=O)NCC(C)OP(=O)([O-])OC4C(CO)OC(n5cnc9cc(C)c(C)cc95)C4O)C(C)(CC(N)=O)C8CCC(N)=O)/C(C)(CC(N)=O)C7CCC(N)=O)C(C)(C)C6CCC(N)=O)[C@@H](NC(=O)c4ccccc4)c4ccccc4)C(C)=C1C3(C)C)[C@]1(OC(C)=O)COC1C[C@@H]2O.[Cl-] (some centres unmarked) [cobalamin-paclitaxel bioconjugate, Cbl—(CH2)3N(CH3)CH2COO-2′-PTX]",anti-angiogenic performance compared with DC101,[1],better performance than that of DC101
same,toxicity by white blood cell count,white blood cells,no neutropenia
